Test results: PMC8840689, “Bacillus cereus Toxin Repertoire: Diversity of (Iso)cereulide(s)” (Molecules, 2022)

Experiments:
[1] = UPLC retention on RP-BEH-C18 column (analyte hydrophobicity); type: physicochemical; conditions: for RT (retention time on RP-BEH-C18 UPLC column): chromatographic, BEH-C18 2.1 × 150 mm, 1.7 µm, 0.4 mL/min, 45 °C, A aqueous HCOOH (0.1%), B MeCN with HCOOH (0.1%), 93% B to 100% B in 4 min, ESI-TOF-MS, uncalibrated, link to hydrophobicity only implicit
Procedure: Purification of cereulide (1) and isocereulides H–N (2–8): The purification of 1–8 from the reduced ethanol extract was performed according to the literature. In brief, the extract was diluted with H2O (1:10) for better retention of the target analytes on the column material and pre-fractionated via C18 SPE cartridges (60 mL, 10 g; Chromabond, Macherey-Nagel, Düren, Germany). All obtained methanolic fractions were combined and the solvent was reduced to approx. 150 mL using a rotary evaporator and stored at −20 °C until further use for compound isolation. The sample material was separated via semi-preparative HPLC into 10 fractions (Supplementary Materials, Figure S1), for which the respective eluates were combined and their solvents removed through a rotary evaporator. The obtained HPLC fractions were screened for cereulide (1) and its isocereulides using a UPLC-TOF-MS system Synapt G2-S (Waters, Manchester, UK) in the positive electrospray mode equipped with a 2.1 × 150 mm, 1.7 µm BEH-C18 column (Waters, Manchester, UK) at a flow rate of 0.4 mL/min at 45 °C using aqueous HCOOH (0.1%) as solvent A and MeCN with HCOOH (0.1%) as solvent B. Elution was performed by starting at 93% B, increasing to 100% B in 4 min, holding at 100% B for 2 min, followed by decreasing to 93% in 0.1 min and holding at 93% B for 0.9 min.

[2] = cited from earlier work
Excerpt: (§1) Determination of EC50 of cereulide (1) and isocereulides H–N (2–8) via HEp-2 cell assay. The testing principle of the HEp-2 cell assay is based on the uncoupling of ATP synthesis, effectuated by supplemented ionophores, resulting in a facilitated ion influx into the mitochondria, thus disrupting the membrane potential. As a result, the 50% effective concentration (EC50) gives the amount of toxin required to inactivate half of the viable cells.

[3] = cited from earlier work; remark: listed apart in the source
Excerpt: . Cereulide (1) is composed of 12 alternatingly placed α-amino and α-hydroxy acids thought to form the three-time circularly repeating tetradepsipeptide unit D-O-Leu-D-Ala-L-O-Val-L-Val (Figure 1), leading to its characteristic dodecadepsipeptide structure in a rectangular cylindrical shape. Because of its uniqu ...

HEp-2 cells [4] = type: cell-based
Excerpt: as §1
HEp-2 cell assay: The cytotoxic activity of 1–8 was determined by quantifying their EC50 using HEp-2 cells, as described previously. In a 96-well microtiter plate assay, a 2% ethanolic minimum essential medium (MEM-Earle’s), containing 2% FCS, 1% sodium pyruvate and 0.4% penicillin-streptomycin (v/v each), was provided to perform stepwise dilution of each toxin solution. As an overall toxicity reference and cell control, the structurally related toxin valinomycin was used analogously, in a range of approx. 2–500 ng/mL. The composition of each toxin sample is listed in the Supplementary Materials, Table S2. The HEp-2 cells were freed from their medium and washed with 5 mL of PBS twice and 5 mL of 0.05% Trypsin/EDTA solution was added. After incubation (8 min, 37 °C, 5% CO2), 10 mL of MEM was added and the cells were resuspended, transferred to a falcon tube and centrifuged (RT, 7 min, 700 rpm). The supernatant was discarded, the cell pellet was suspended in 5 mL of MEM and the cell count was determined via Trypan blue. Finally, the cell count was set to 6.7 × 10^5 cells/mL MEM (1 × 10^5 cells/well); a total of 150 µL of this solution was spiked to each well and the plate was incubated (48 h, 37 °C, 5% CO2). After removing 100 µL of the medium, 10 µL of the cell proliferation reagent WST (cell counting kit) was added and shaken for 1 min (400 rpm) and the plate was incubated (20 min, 37 °C, 5% CO2). To determine cell viability, the extinction at 450 nm/620 nm (TECAN infinite F200) was measured. The respective EC50 values for each sample were then calculated from the obtained dose-response curves and the corresponding applied sample dilution and concentration.
An aliquot of 2 µL of the respective samples with ^13C6-cereulide as an internal standard (100 ng/mL) was applied for the quantitation of 1–8 in the samples, later applied in the HEp-2 cell assay according to the literature, performed on a Waters Xevo TQ-S mass spectrometer (Waters) coupled to an Acquity UPLC i-class core system (Waters) with a binary solvent manager, sample manager and column oven. The system was operated with MassLynx 4.1 SCN 813 Software (Waters) and data processing and analysis were performed with TargetLynx (Waters). The recently reported quantitation method for cereulide and isocereulides A-G [33] was extended by implementing the ammonium adducts of 2–8 using the multiple reaction monitoring mode with the following parameters. Compounds 2, 3 and 7 m/z 1156.6 → qualifier m/z 172.2, 314.2; quantifier m/z 357.2. Compound 4 m/z 1142.6 → qualifier m/z 172.2, 314.2; quantifier m/z 357.2. Compound 5 m/z 1184.6 → qualifier m/z 172.2, 314.2; quantifier m/z 357.2. Compounds 6 and 8 m/z 1186.6 → qualifier m/z 172.2, 314.2; quantifier m/z 357.2. The calibration for the quantitation of the analytes consisted of mixtures of cereulide (0.1–1000 ng/mL in EtOH) and ^13C6-cereulide (100 ng/mL) as an internal standard. Mixtures were prepared from stock solutions and analyzed in triplicate by UPLC-MS/MS. The calibration curve was obtained by plotting the peak area ratios of analytes to internal standard against the concentration ratios of analyte to internal standard for each solution and applying linear regression (origin excluded) to give the equation y=2.5174x+0.0061 with R^2=0.9998 . For 1 and ^13C6-cereulide, the quantifier mass transitions were selected as m/z 1170.7 → m/z 357.2 and m/z 1176.7 → m/z 358.2, respectively. All mass spectrometric and chromatographic parameters were used as reported.

5–HT3 receptors = conditions: lower concentrations; stimulation of the vagus afferent by binding to 5–HT3 receptors in the duodenum; cited from earlier work
Excerpt: (§2) Similar to the antibiotic valinomycin, cereulide unfolds its toxicity potential due to a high affinity for complex formation with alkali metal ions (Li^+, Na^+ and K^+) and ammonium ions, resulting in its biological function as a strong K^+ ionophore and as a K^+ transporter, resulting in cell membrane depolarization.

blood–brain barrier = conditions: porcine model; cited from earlier work
Excerpt: as §2

HEp-2 cells [5] = conditions: cited from earlier work
Excerpt: At this point, we can only speculate about the magnitude of the impact that isocereulides have on the overall toxicity of (iso)cereulide-containing B. cereus cell cultures.

| Molecule | RT (retention time on RP-BEH-C18 UPLC column) [1] [min] | further results |
| --- | --- | --- |
| CC(C)C[C@H]1OC(=O)[C@H](C(C)C)NC(=O)[C@H](C(C)C)OC(=O)[C@@H](C)NC(=O)[C@@H](CC(C)C)OC(=O)[C@H](C(C)C)NC(=O)[C@H](C(C)C)OC(=O)[C@@H](C)NC(=O)[C@@H](CC(C)C)OC(=O)[C@H](C(C)C)NC(=O)[C@H](C(C)C)OC(=O)[C@@H](C)NC1=O [Cereulide, cereulide] | 4.25 | increased toxicity compared to valinomycin [2]: approx. 15 fold; stability to temperatures, pH values and enzymes [3]: inert to a wide range of temperatures, pH values and enzymes; absolute EC50 (HEp-2 cells [4]; 48 h): 2.44 ng/mL; toxic effect relative to valinomycin at an equally applied concentration (HEp-2 cells [4]; HEp-2 cells, from EC50 values, data not shown): 13.7 times; emetic effect (5–HT3 receptors): provoke vomiting; crossing of the blood–brain barrier (blood–brain barrier): can cross the blood–brain barrier |
| CC(C)C[C@H]1OC(=O)[C@H](C(C)C)NC(=O)[C@H](C(C)C)OC(=O)CNC(=O)[C@@H](CC(C)C)OC(=O)[C@H](C(C)C)NC(=O)[C@H](C(C)C)OC(=O)[C@@H](C)NC(=O)[C@@H](CC(C)C)OC(=O)[C@H](C(C)C)NC(=O)[C@H](C(C)C)OC(=O)[C@@H](C)NC1=O [Isocereulide H, isocereulide H] | 2.88 | absolute EC50 (HEp-2 cells [4]; 48 h): 6.62 ng/mL; decreased toxicity effect on HEp-2 cells compared to 1 (HEp-2 cells [4]; HEp-2 cells, 48 h): 63% |
| CC[C@@H]1NC(=O)[C@H](C(C)C)OC(=O)[C@@H](C)NC(=O)[C@@H](CC(C)C)OC(=O)[C@H](C(C)C)NC(=O)[C@H](C(C)C)OC(=O)[C@@H](C)NC(=O)[C@@H](CC(C)C)OC(=O)[C@H](C(C)C)NC(=O)[C@H](C(C)C)OC(=O)[C@@H](C)NC(=O)[C@@H](CC(C)C)OC1=O [Isocereulide I, isocereulide I] | 3.40 | hydrophobicity compared with 1 (in words) [1]: slightly more hdrophilic; absolute EC50 (HEp-2 cells [4]; 48 h): 1.75 ng/mL; toxicity relative to cereulide (1) (reciprocal EC50, cereulide set to 1) (HEp-2 cells [4]; HEp-2 cells, 48 h): 1.4 fold |
| D-O-Leu-D-Ala-L-O-Val-L-Val-D-O-Leu-Gly-L-O-Val-L-Val-D-O-Ile-D-Ala-L-O-Val-L-Val (lariat or depsi) [Isocereulide M, isocereulide M, cereulide variant, D-Ala by Gly and D-O-Leu by D-O-Ile] | 3.07 | – |
| isocereulide A | 4.83 | higher toxicity than cereulide (HEp-2 cells [5]): approximately 8 fold |
| isocereulide B | 3.83 | – |
| isocereulide C | 2.52 | – |
| isocereulide D | 2.88 | – |
| isocereulide E | 3.83 | – |
| isocereulide F | 5.00 | – |
| isocereulide G | 4.56 | – |
| isocereulide J | 3.57 | – |
| isocereulide K | 4.59 | hydrophobicity compared with 1 (in words) [1]: more hydrophobic than 1; cytotoxicity compared to 1 (HEp-2 cells [4]; HEp-2 cells, 48 h): 69% |
| isocereulide L | 2.76 | – |
| isocereulide N | 2.76 | – |
